# Data from ChEMBL document CHEMBL5614395 (Eur J Med Chem, 2024).
# Test: in vitro
# Details: human, Caco-2
row,Structure (SMILES),Papp A→B
1,COc1cc(-n2ncc3c(-c4cccc(-c5ccc(CN(C)C67CCC(C(=O)O)(CC6)CC7)c(OC)n5)c4Cl)cccc32)cc(OC)c1CN(C)[C@H]1C[C@H](O)C1,3 ×10⁻⁶ cm/s
2,COc1cc(-n2ncc3c(-c4cccc(-c5ccc(CN[C@H]6C[C@@H](O)C6)c(OC)n5)c4Cl)cccc32)cc(OC)c1CN(C)C12CCC(C(=O)O)(CC1)CC2,0.4 ×10⁻⁶ cm/s
3,COc1cc(-n2ncc3c(-c4cccc(-c5ccc(CN[C@H]6C[C@@H](O)C6)c(OC)n5)c4Cl)cccc32)cc(OC)c1CN1CC(C(=O)O)C1,0.1 ×10⁻⁶ cm/s
